According to patent US20240033272A1, “USE OF C[…] THE TREATMENT OF SEIZURES ASSOCIATED WITH HERPES SIMPLEX VIRUS” (GW Research Limited, priority 2020, published 2024):

Tested on: patients diagnosed with herpes simplex virus (seizures associated with herpes simplex virus)
Assay: Open label, expanded-access program: seizure frequency recorded by caregivers in a diary, change relative to baseline
Assay type: in vivo, human
Parameters: Reduction in myoclonic seizures over the treatment period / Reduction in absence seizures over the treatment period / Reduction in focal seizures with impairment over the treatment period / Reduction in tonic-clonic seizures over the treatment period / Reduction in atonic seizures over the treatment period / Reduction in tonic seizures over the treatment period: concentration or dose not given beside the values; Seizure frequency, tonic-clonic / Seizure frequency, myoclonic / Seizure frequency, absence / Seizure frequency, focal with impairment / Seizure frequency, tonic / Seizure frequency, focal without impairment / Seizure frequency, atonic: unit not given here
Details: for Seizure frequency, atonic: baseline 20.0
Method: Subjects were required to be on one or more AEDs at stable doses for a minimum of two weeks prior to baseline and to have stable vagus nerve stimulation (VNS) settings and ketogenic diet ratios for a minimum of four weeks prior to baseline.
Modifications were made to concomitant AEDs as per clinical indication.
Seizure frequency, intensity, and duration were recorded by caregivers in a diary during a baseline period of at least 28 days. Changes in seizure frequency relative to baseline were calculated after at least 2 weeks and at defined timepoints of treatment.
Patients may be defined as responders if they had more than 50% reduction in seizure frequency compared to baseline. The percent change in seizure frequency was calculated as follows: […]
The percent change of seizure frequency may be calculated for any time interval where seizure number has been recorded. For the purpose of this example the percent change of seizure frequency for the end of the treatment period was calculated as follows: […]

[1] = Patient 1, treated for 48 weeks, vs baseline
[2] = Patient 2, 4 weeks, CBD 25.0 mg/kg/day, baseline 8.0
[3] = Patient 2, 8 weeks, CBD 25.0 mg/kg/day, baseline 8.0
[4] = Patient 2, 24 weeks, CBD 25.0 mg/kg/day, baseline 8.0
[5] = Patient 3, treated for 108 weeks, vs baseline

Compound: C=C(C)[C@@H]1CCC(C)=C[C@H]1c1c(O)cc(CCCCC)cc1O [CBD, cannabidiol]
- Time of treatment after which patient became completely seizure free, focal seizures with impairment (Patient 1): 24 weeks
- Time of treatment after which patient became completely seizure free, myoclonic seizures (Patient 1): 8 weeks
- Seizure frequency, tonic-clonic (Patient 1, 4 weeks, CBD 5.0 mg/kg/day, baseline 0.0): 14.0
- Seizure frequency, myoclonic (Patient 1, 4 weeks, CBD 5.0 mg/kg/day, baseline 75.0): 4.0
- Seizure frequency, focal with impairment (Patient 1, 4 weeks, CBD 5.0 mg/kg/day, baseline 100.0): 14.0
- Seizure frequency, absence (Patient 1, 4 weeks, CBD 5.0 mg/kg/day, baseline 2500.0): 800.0
- Seizure frequency, tonic-clonic (Patient 1, 8 weeks, CBD 10.0 mg/kg/day, baseline 0.0): 20.0
- Seizure frequency, myoclonic (Patient 1, 8 weeks, CBD 10.0 mg/kg/day, baseline 75.0): 0.0
- Seizure frequency, focal with impairment (Patient 1, 8 weeks, CBD 10.0 mg/kg/day, baseline 100.0): 12.0
- Seizure frequency, absence (Patient 1, 8 weeks, CBD 10.0 mg/kg/day, baseline 2500.0): 1390.0
- Seizure frequency, tonic-clonic (Patient 1, 16 weeks, CBD 15.0 mg/kg/day, baseline 0.0): 20.0
- Seizure frequency, myoclonic (Patient 1, 16 weeks, CBD 15.0 mg/kg/day, baseline 75.0): 0.0
- Seizure frequency, focal with impairment (Patient 1, 16 weeks, CBD 15.0 mg/kg/day, baseline 100.0): 7.0
- Seizure frequency, absence (Patient 1, 16 weeks, CBD 15.0 mg/kg/day, baseline 2500.0): 250.0
- Seizure frequency, tonic-clonic (Patient 1, 24 weeks, CBD 20.0 mg/kg/day, baseline 0.0): 79.6
- Seizure frequency, myoclonic (Patient 1, 24 weeks, CBD 20.0 mg/kg/day, baseline 75.0): 0.0
- Seizure frequency, focal with impairment (Patient 1, 24 weeks, CBD 20.0 mg/kg/day, baseline 100.0): 0.0
- Seizure frequency, absence (Patient 1, 24 weeks, CBD 20.0 mg/kg/day, baseline 2500.0): 398.0
- Seizure frequency, tonic-clonic (Patient 1, 36 weeks, CBD 25.0 mg/kg/day, baseline 0.0): 31.3
- Seizure frequency, myoclonic (Patient 1, 36 weeks, CBD 25.0 mg/kg/day, baseline 75.0): 0.0
- Seizure frequency, focal with impairment (Patient 1, 36 weeks, CBD 25.0 mg/kg/day, baseline 100.0): 0.0
- Seizure frequency, absence (Patient 1, 36 weeks, CBD 25.0 mg/kg/day, baseline 2500.0): 466.6
- Seizure frequency, tonic-clonic (Patient 1, 48 weeks, CBD 25.0 mg/kg/day, baseline 0.0): 16.0
- Seizure frequency, myoclonic (Patient 1, 48 weeks, CBD 25.0 mg/kg/day, baseline 75.0): 0.0
- Seizure frequency, focal with impairment (Patient 1, 48 weeks, CBD 25.0 mg/kg/day, baseline 100.0): 0.0
- Seizure frequency, absence (Patient 1, 48 weeks, CBD 25.0 mg/kg/day, baseline 2500.0): 231.7
- Reduction in absence seizures over the treatment period [1]: 90.7%
- Reduction in focal seizures with impairment over the treatment period [1]: 100%
- Reduction in myoclonic seizures over the treatment period [1]: 100%
- Seizure frequency, tonic-clonic (Patient 2, 4 weeks, CBD 25.0 mg/kg/day, baseline 1.0): 0.0
- Seizure frequency, absence [2]: 6.0
- Seizure frequency, focal without impairment [2]: 8.0
- Seizure frequency, tonic (Patient 2, 4 weeks, CBD 25.0 mg/kg/day, baseline 32.0): 44.0
- Seizure frequency, tonic-clonic (Patient 2, 8 weeks, CBD 25.0 mg/kg/day, baseline 1.0): 0.0
- Seizure frequency, absence [3]: 0.0
- Seizure frequency, focal without impairment [3]: 0.0
- Seizure frequency, tonic (Patient 2, 8 weeks, CBD 25.0 mg/kg/day, baseline 32.0): 24.0
- Seizure frequency, tonic-clonic (Patient 2, 24 weeks, CBD 25.0 mg/kg/day, baseline 1.0): 0.5
- Seizure frequency, absence [4]: 12.0
- Seizure frequency, focal without impairment [4]: 17.0
- Seizure frequency, tonic (Patient 2, 24 weeks, CBD 25.0 mg/kg/day, baseline 32.0): 56.0
- Reduction in tonic-clonic seizures over the treatment period (Patient 2, treated for 24 weeks, vs baseline): 50%
- Seizure frequency, tonic-clonic (Patient 3, 2 weeks, CBD 5.0 mg/kg/day, baseline 6.0): 8.0
- Seizure frequency, myoclonic (Patient 3, 2 weeks, CBD 5.0 mg/kg/day, baseline 32.0): 6.0
- Seizure frequency, tonic-clonic (Patient 3, 4 weeks, CBD 10.0 mg/kg/day, baseline 6.0): 5.3
- Seizure frequency, myoclonic (Patient 3, 4 weeks, CBD 10.0 mg/kg/day, baseline 32.0): 9.3
- Seizure frequency, tonic-clonic (Patient 3, 8 weeks, CBD 20.0 mg/kg/day, baseline 6.0): 6.0
- Seizure frequency, myoclonic (Patient 3, 8 weeks, CBD 20.0 mg/kg/day, baseline 32.0): 16.0
- Seizure frequency, tonic-clonic (Patient 3, 16 weeks, CBD 25.0 mg/kg/day, baseline 6.0): 11.0
- Seizure frequency, myoclonic (Patient 3, 16 weeks, CBD 25.0 mg/kg/day, baseline 32.0): 4.0
- Seizure frequency, tonic-clonic (Patient 3, 36 weeks, CBD 30.0 mg/kg/day, baseline 6.0): 2.6
- Seizure frequency, myoclonic (Patient 3, 36 weeks, CBD 30.0 mg/kg/day, baseline 32.0): 9.3
- Seizure frequency, tonic-clonic (Patient 3, 48 weeks, CBD 35.0 mg/kg/day, baseline 6.0): 7.7
- Seizure frequency, myoclonic (Patient 3, 48 weeks, CBD 35.0 mg/kg/day, baseline 32.0): 18.4
- Seizure frequency, tonic-clonic (Patient 3, 60 weeks, CBD 35.0 mg/kg/day, baseline 6.0): 6.6
- Seizure frequency, myoclonic (Patient 3, 60 weeks, CBD 35.0 mg/kg/day, baseline 32.0): 19.4
- Seizure frequency, tonic-clonic (Patient 3, 72 weeks, CBD 30.0 mg/kg/day, baseline 6.0): 3.4
- Seizure frequency, myoclonic (Patient 3, 72 weeks, CBD 30.0 mg/kg/day, baseline 32.0): 9.7
- Seizure frequency, tonic-clonic (Patient 3, 96 weeks, CBD 30.0 mg/kg/day, baseline 6.0): 1.0
- Seizure frequency, myoclonic (Patient 3, 96 weeks, CBD 30.0 mg/kg/day, baseline 32.0): 13.8
- Seizure frequency, tonic-clonic (Patient 3, 108 weeks, CBD 30.0 mg/kg/day, baseline 6.0): 0.9
- Seizure frequency, myoclonic (Patient 3, 108 weeks, CBD 30.0 mg/kg/day, baseline 32.0): 13.8
- Reduction in myoclonic seizures over the treatment period [5]: 56.9%
- Reduction in tonic-clonic seizures over the treatment period [5]: 85%
- Seizure frequency, tonic-clonic (Patient 4, 2 weeks, CBD 5.0 mg/kg/day, baseline 10.0): 2.0
- Seizure frequency, focal with impairment (Patient 4, 2 weeks, CBD 5.0 mg/kg/day, baseline 14.0): 4.0
- Seizure frequency, atonic (Patient 4, 2 weeks, CBD 5.0 mg/kg/day): 0.0
- Seizure frequency, tonic-clonic (Patient 4, 4 weeks, CBD 10.0 mg/kg/day, baseline 10.0): 2.0
- Seizure frequency, focal with impairment (Patient 4, 4 weeks, CBD 10.0 mg/kg/day, baseline 14.0): 2.0
- Seizure frequency, atonic (Patient 4, 4 weeks, CBD 10.0 mg/kg/day): 1.0
- Seizure frequency, tonic-clonic (Patient 4, 8 weeks, CBD 20.0 mg/kg/day, baseline 10.0): 0.0
- Seizure frequency, focal with impairment (Patient 4, 8 weeks, CBD 20.0 mg/kg/day, baseline 14.0): 0.0
- Seizure frequency, atonic (Patient 4, 8 weeks, CBD 20.0 mg/kg/day): 0.0
- Seizure frequency, tonic-clonic (Patient 4, 12 weeks, CBD 20.0 mg/kg/day, baseline 10.0): 0.0
- Seizure frequency, focal with impairment (Patient 4, 12 weeks, CBD 20.0 mg/kg/day, baseline 14.0): 0.0
- Seizure frequency, atonic (Patient 4, 12 weeks, CBD 20.0 mg/kg/day): 5.0
